Test results: the supplement of paper PMC5908809

What was measured:
[1] = system: normal NK cells expanded with K562-aAPC; experiment: percent inhibition of viability; higher = more inhibition; settings: 72 h, IL-2 2.5 ng/mL
Protocol: (§1)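 Drug sensitivity and resistance testing on K562-aAPC-expanded normal NK cells: 5 concentrations (10-fold steps over a 10,000-fold range), 72 h at 37 °C, viability by CellTiter-Glo normalised to DMSO and benzethonium chloride controls; DSS from the fitted curve.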

DERL-7 (IL-2 2.5 ng/mL) [2] = experiment: as above; settings: 72 h
IMC-1 (IL-2 20 ng/mL) [3] = experiment: as above; settings: 72 h
KAI3 (IL-2 2.5 ng/mL) [4] = experiment: as above; settings: 72 h
KHYG-1 (IL-2 2.5 ng/mL) [5] = experiment: as above; settings: 72 h
NK-92 (IL-2 2.5 ng/mL) [6] = experiment: as above; settings: 72 h
NK-YS (IL-2 2.5 ng/mL) [7] = experiment: as above; settings: 72 h
NKL (IL-2 2.5 ng/mL) [8] = experiment: as above; settings: 72 h
SNK-6 (IL-2 2.5 ng/mL) [9] = experiment: as above; settings: 72 h
YT (IL-2 2.5 ng/mL) [10] = experiment: as above; settings: 72 h
[11] = system: normal primary NK cells, pool 1 (3 donors) (IL-2 2.5 ng/mL); experiment: as above; settings: 72 h
[12] = system: normal primary NK cells, pool 1 (3 donors), resting (IL-2 0 ng/mL); experiment: as above; settings: 72 h
[13] = system: normal primary NK cells, pool 2 (3 donors) (IL-2 2.5 ng/mL); experiment: as above; settings: 72 h
[14] = system: normal primary NK cells, pool 3 (3 donors) (IL-2 2.5 ng/mL); experiment: as above; settings: 72 h
[15] = system: normal NK cells expanded with K562-aAPC; experiment: drug sensitivity score (DSS) (DSS units); higher = more sensitive; extreme values may be limits of the assay; settings: 72 h; IL-2 2.5 ng/mL
Protocol: as §1

DERL-7 (IL-2 2.5 ng/mL) [16] = experiment: as above; settings: 72 h
IMC-1 (IL-2 20 ng/mL) [17] = experiment: as above; settings: 72 h
KAI3 (IL-2 2.5 ng/mL) [18] = experiment: as above; settings: 72 h
KHYG-1 (IL-2 2.5 ng/mL) [19] = experiment: as above; settings: 72 h
NK-92 (IL-2 2.5 ng/mL) [20] = experiment: as above; settings: 72 h
NK-YS (IL-2 2.5 ng/mL) [21] = experiment: as above; settings: 72 h
NKL (IL-2 2.5 ng/mL) [22] = experiment: as above; settings: 72 h
SNK-6 (IL-2 2.5 ng/mL) [23] = experiment: as above; settings: 72 h
YT (IL-2 2.5 ng/mL) [24] = experiment: as above; settings: 72 h
[25] = system: normal primary NK cells, pool 1 (3 donors) (IL-2 2.5 ng/mL); experiment: as above; settings: 72 h
[26] = system: normal primary NK cells, pool 1 (3 donors), resting (IL-2 0 ng/mL); experiment: as above; settings: 72 h
[27] = system: normal primary NK cells, pool 2 (3 donors) (IL-2 2.5 ng/mL); experiment: as above; settings: 72 h
[28] = system: normal primary NK cells, pool 3 (3 donors) (IL-2 2.5 ng/mL); experiment: as above; settings: 72 h

Nc1ccn([C@@H]2O[C@H](CO)[C@@H](O)C2(F)F)c(=O)n1 [Gemcitabine] (max concentration tested 1000 nM)
percent inhibition of viability [%]
Settings | 0.1 nM | 1 nM | 10 nM | 100 nM | 1000 nM
DERL-7 (IL-2 2.5 ng/mL) [2] | -4.73 | -12.3 | 44.9 | 99.7 | 99.8
IMC-1 (IL-2 20 ng/mL) [3] | -7.53 | 2 | 99.1 | 101 | 101
KAI3 (IL-2 2.5 ng/mL) [4] | -18.3 | 3.34 | 79.8 | 98.3 | 101
KHYG-1 (IL-2 2.5 ng/mL) [5] | 2.22 | 12.5 | 101 | 105 | 105
NK-92 (IL-2 2.5 ng/mL) [6] | -6.25 | 12.2 | 92.2 | 104 | 104
NK-YS (IL-2 2.5 ng/mL) [7] | -3.23 | -1.72 | 87.7 | 97.1 | 101
NKL (IL-2 2.5 ng/mL) [8] | -10.6 | 68.9 | 102 | 106 | 104
SNK-6 (IL-2 2.5 ng/mL) [9] | 18.4 | 13.8 | 57.7 | 94.6 | 100
YT (IL-2 2.5 ng/mL) [10] | 2.42 | -2.18 | 20.1 | 78.2 | 65
[1] | 1.65 | 34.8 | 55.6 | 74.6 | 88.2
[11] | -2.78 | -14 | 4.7 | -1.17 | 26.4
[12] | -12.2 | -40.4 | -21.2 | -27.6 | 23.4
[13] | -12.2 | -6.97 | 19.6 | 14.7 | 29.7
[14] | -9.85 | -6.72 | 16.8 | 12.6 | 38

Settings | drug sensitivity score
DERL-7 (IL-2 2.5 ng/mL) [16] | 23.7
IMC-1 (IL-2 20 ng/mL) [17] | 30.6
KAI3 (IL-2 2.5 ng/mL) [18] | 27.6
KHYG-1 (IL-2 2.5 ng/mL) [19] | 32.6
NK-92 (IL-2 2.5 ng/mL) [20] | 31
NK-YS (IL-2 2.5 ng/mL) [21] | 28.4
NKL (IL-2 2.5 ng/mL) [22] | 38.4
SNK-6 (IL-2 2.5 ng/mL) [23] | 25.1
YT (IL-2 2.5 ng/mL) [24] | 17.4
[15] | 24.5
[25] | 0.96
[26] | 0.38
[27] | 3.97
[28] | 3.49

CN1CCN(C2CCN(C(=O)Nc3cc(Oc4ccc(NC(=O)C5(C(=O)Nc6ccc(F)cc6)CC5)c(F)c4)ccn3)CC2)CC1 [Golvatinib] (max concentration tested 2500 nM)
percent inhibition of viability [%]
Settings | 0.25 nM | 2.5 nM | 25 nM | 250 nM | 2500 nM
DERL-7 (IL-2 2.5 ng/mL) [2] | -1.96 | -0.71 | 1.22 | -0.87 | 15.2
IMC-1 (IL-2 20 ng/mL) [3] | -9.45 | -2.35 | -2.39 | 5.73 | 3.69
KAI3 (IL-2 2.5 ng/mL) [4] | -7 | -3.9 | 0.53 | 6.28 | 24
KHYG-1 (IL-2 2.5 ng/mL) [5] | -11.8 | -6.81 | -7.1 | 2.14 | 52.1
NK-92 (IL-2 2.5 ng/mL) [6] | -11.7 | -1.86 | -7.52 | 14.7 | 44.5
NK-YS (IL-2 2.5 ng/mL) [7] | -10.5 | -6.07 | -5.82 | 0.77 | 12.1
NKL (IL-2 2.5 ng/mL) [8] | -12.1 | -3.62 | 2.15 | 8.61 | 20.8
SNK-6 (IL-2 2.5 ng/mL) [9] | -15.4 | -12 | -10.5 | -8.86 | 2.23
YT (IL-2 2.5 ng/mL) [10] | -6.16 | -1.34 | -3.26 | 2.58 | 22.1
[1] | -2.77 | -6.95 | -4.34 | 5.19 | 23.6
[11] | -2.39 | 15 | 8.72 | 9.1 | 11.9
[12] | -3.44 | 12.3 | 5.91 | 13.5 | 11.9
[13] | -0.98 | 2.77 | 11.2 | -2.79 | 3.25
[14] | -5.97 | 4.22 | 1.77 | 0.21 | -2.7

Settings | drug sensitivity score
DERL-7 (IL-2 2.5 ng/mL) [16] | 0.2
IMC-1 (IL-2 20 ng/mL) [17] | 0
KAI3 (IL-2 2.5 ng/mL) [18] | 1.75
KHYG-1 (IL-2 2.5 ng/mL) [19] | 3.05
NK-92 (IL-2 2.5 ng/mL) [20] | 4.41
NK-YS (IL-2 2.5 ng/mL) [21] | 0.08
NKL (IL-2 2.5 ng/mL) [22] | 1.26
SNK-6 (IL-2 2.5 ng/mL) [23] | 0
YT (IL-2 2.5 ng/mL) [24] | 1.11
[15] | 1.59
[25] | 0.66
[26] | 1.23
[27] | 0
[28] | 0
